Each structure is given as a SMILES string.

What is called Ki is a measure of affinity in units of concentration, obtained from inhibition or displacement.

This test addresses T1, recombinant human NK3 receptor (Homo sapiens, UniProt P29371).
T1 construct: expressed in transfected cells; host or cells: HEK293 cells (transient expression), membranes
T1 sequence (P29371 1-465): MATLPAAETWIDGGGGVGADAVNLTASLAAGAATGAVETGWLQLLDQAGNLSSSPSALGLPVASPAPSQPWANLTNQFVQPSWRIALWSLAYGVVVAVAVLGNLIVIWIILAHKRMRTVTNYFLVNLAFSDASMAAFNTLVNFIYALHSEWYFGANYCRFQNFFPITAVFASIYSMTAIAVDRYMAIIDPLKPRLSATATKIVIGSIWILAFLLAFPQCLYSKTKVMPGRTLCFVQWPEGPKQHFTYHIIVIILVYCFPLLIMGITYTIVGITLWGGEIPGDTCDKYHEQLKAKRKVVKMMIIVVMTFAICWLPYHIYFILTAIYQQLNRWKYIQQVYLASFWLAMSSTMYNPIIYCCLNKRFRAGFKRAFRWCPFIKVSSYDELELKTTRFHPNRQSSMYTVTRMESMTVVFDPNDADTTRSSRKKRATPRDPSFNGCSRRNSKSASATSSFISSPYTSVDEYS
The experiment in a line: [3H]SR142801 competition binding assay. Conditions: [3H]SR142801, membranes from HEK293 cells transiently expressing recombinant human NK3 receptor; read-out: hNK3 Ki. The method, boiled down: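 Membranes from HEK293 cells transiently expressing human NK3 were incubated 75 min at RT with [3H]SR142801 at its KD and inhibitor (0.0003-10 μM) in Tris-HCl pH 7.4/MnCl2/phosphoramidon/BSA. Nonspecific binding used 10 μM SB222200. Ki from Hill-fitted IC50 via Cheng-Prusoff, duplicate determinations.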
Consider `C[C@@H]1CN(CCC(C)(C(=O)NCc2cc(F)ccc2C(F)(F)F)c2ccc(Cl)c(Cl)c2)CCN1S(C)(=O)=O` (stereo partly drawn) [Example 44, 2-(3,4-Dichloro-phenyl)-N-(5-fluoro-2-trifluoromethyl-benzyl)-4-((R)-4-methanesulfonyl-3-methyl-piperazin-1-yl)-2-methyl-butyramide], for which the Ki came to 212 nM.

Take `COc1ccc(CN(C)C(=O)C(C)(CCN2CCN(S(C)(=O)=O)[C@H](C)C2)c2ccc(Cl)c(Cl)c2)cc1F` (stereo partly drawn) [Example 31, 2-(3,4-Dichloro-phenyl)-N-(3-fluoro-4-methoxy-benzyl)-4-((R)-4-methanesulfonyl-3-methyl-piperazin-1-yl)-2,N-dimethyl-butyramide]: the Ki amounted to 109 nM.

Regarding `C[C@H]1CN(CCC(C)(C(=O)N(C)Cc2cccc(F)c2)c2ccc(Cl)c(Cl)c2)CCN1S(C)(=O)=O` (stereo partly drawn) [Example 89, 2-(3,4-Dichloro-phenyl)-N-(3-fluoro-benzyl)-4-((S)-4-methanesulfonyl-3-methyl-piperazin-1-yl)-2,N-dimethyl-butyramide], the Ki is 266 nM.

With `CN(Cc1cccc(Cl)c1)C(=O)C(C)(CCN1CCCN(S(C)(=O)=O)CC1)c1ccc(Cl)c(Cl)c1` (stereo not drawn) [Example 103, N-(3-Chloro-benzyl)-2-(3,4-dichloro-phenyl)-4-(4-methanesulfonyl-[1,4]diazepan-1-yl)-2,N-dimethyl-butyramide], the Ki was 41.8 nM.

With `COc1ccc(C(NC(=O)C(C)(CCN2CCN(S(C)(=O)=O)[C@@H](C)C2)c2ccc(Cl)c(Cl)c2)C2CC2)cc1` (stereo partly drawn) [Example 63, N-[Cyclopropyl-(4-methoxy-phenyl)-methyl]-2-(3,4-dichloro-phenyl)-4-((S)-4-methanesulfonyl-3-methyl-piperazin-1-yl)-2-methyl-butyramide], the Ki is 65.7 nM.

For the molecule `CN(Cc1cccc(F)c1)C(=O)C(C)(CCN1CCN(S(C)(=O)=O)CC1)c1ccc(Cl)c(Cl)c1` (stereo not drawn) [Example 24, 2-(3,4-Dichloro-phenyl)-N-(3-fluoro-benzyl)-4-(4-methanesulfonyl-piperazin-1-yl)-2,N-dimethyl-butyramide], the Ki is 224 nM.

On to `C[C@@H]1CN(CCC(C)(C(=O)NCc2ccc(N(C)C)cc2)c2ccc(Cl)c(Cl)c2)CCN1S(C)(=O)=O` (stereo partly drawn) [Example 37, 2-(3,4-Dichloro-phenyl)-N-(4-dimethylamino-benzyl)-4-((R)-4-methanesulfonyl-3-methyl-piperazin-1-yl)-2-methyl-butyramide], for which the Ki was determined as 485 nM.

As for `C[C@@H]1CN(CCC(C)(C(=O)NCc2ccc(C(F)(F)F)nc2)c2ccc(Cl)c(Cl)c2)CCN1S(C)(=O)=O` (stereo partly drawn) [Example 92, 2-(3,4-Dichloro-phenyl)-4-((R)-4-methanesulfonyl-3-methyl-piperazin-1-yl)-2-methyl-N-(6-trifluoromethyl-pyridin-3-ylmethyl)-butyramide], the Ki came to 582 nM.

As for `CN(Cc1ccc(Cl)c(Cl)c1)C(=O)C(C)(CCN1CCCN(S(C)(=O)=O)CC1)c1ccc(Cl)c(Cl)c1` (stereo not drawn) [Example 113, N-(3,4-Dichloro-benzyl)-2-(3,4-dichloro-phenyl)-4-(4-methanesulfonyl-[1,4]diazepan-1-yl)-2,N-dimethyl-butyramide], the Ki stood at 10.1 nM.

For the molecule `CC(CCN1CCN(S(C)(=O)=O)CC1)(C(=O)N[C@@H](CO)c1ccc(F)cc1)c1ccc(Cl)c(Cl)c1` (stereo partly drawn) [Example 132, 2-(3,4-Dichloro-phenyl)-N-[(R)-1-(4-fluoro-phenyl)-2-hydroxy-ethyl]-4-(4-methanesulfonyl-piperazin-1-yl)-2-methyl-butyramide], the Ki came to 146 nM.

As to `C[C@H]1CN(CCC(C)(C(=O)NCc2cccc(OC(F)F)c2)c2ccc(Cl)c(Cl)c2)CCN1S(C)(=O)=O` (stereo partly drawn) [Example 73, 2-(3,4-Dichloro-phenyl)-N-(3-difluoromethoxy-benzyl)-4-((S)-4-methanesulfonyl-3-methyl-piperazin-1-yl)-2-methyl-butyramide], the Ki was 300 nM.

Consider `CN(Cc1ccccc1Cl)C(=O)C(C)(CCN1CCN(S(C)(=O)=O)CC1)c1ccc(Cl)c(Cl)c1` (stereo not drawn) [Example 16, N-(2-Chloro-benzyl)-2-(3,4-dichloro-phenyl)-4-(4-methanesulfonyl-piperazin-1-yl)-2,N-dimethyl-butyramide], for which the inhibition constant (Ki) is 169 nM.

For `C[C@@H]1CN(CCC(C)(C(=O)N(C)Cc2cccc(Cl)c2)c2ccc(Cl)c(Cl)c2)CCN1S(C)(=O)=O` (stereo partly drawn) [Example 59, N-(3-Chloro-benzyl)-2-(3,4-dichloro-phenyl)-4-((R)-4-methanesulfonyl-3-methyl-piperazin-1-yl)-2,N-dimethyl-butyramide], the inhibition constant (Ki) stood at 103 nM.

As to `CN(Cc1ccc(Cl)cc1)C(=O)C(CCN1CCN(S(C)(=O)=O)CC1)c1ccc(Cl)c(Cl)c1` (stereo not drawn) [Example 1, N-(4-Chloro-benzyl)-2-(3,4-dichloro-phenyl)-4-(4-methanesulfonyl-piperazin-1-yl)-N-methyl-butyramide], the Ki was found to be 171 nM.

Consider `CN(Cc1ccc(C(F)(F)F)cc1)C(=O)C(C)(CCN1CCCN(S(C)(=O)=O)CC1)c1ccc(Cl)c(Cl)c1` (stereo not drawn) [Example 96, 2-(3,4-Dichloro-phenyl)-4-(4-methanesulfonyl-[1,4]diazepan-1-yl)-2,N-dimethyl-N-(4-trifluoromethyl-benzyl)-butyramide], for which the Ki stood at 24.5 nM.

For the molecule `CC(CCN1CCCN(S(C)(=O)=O)CC1)(C(=O)NCc1cc(C(F)(F)F)cc(C(F)(F)F)c1)c1ccc(Cl)c(Cl)c1` (stereo not drawn) [Example 107, N-(3,5-Bis-trifluoromethyl-benzyl)-2-(3,4-dichloro-phenyl)-4-(4-methanesulfonyl-[1,4]diazepan-1-yl)-2-methyl-butyramide], the Ki was 209 nM.

On to `CN(Cc1ccc(C(F)(F)F)c(F)c1)C(=O)C(C)(CCN1CCCN(S(C)(=O)=O)CC1)c1ccc(Cl)c(Cl)c1` (stereo not drawn) [Example 112, 2-(3,4-Dichloro-phenyl)-N-(3-fluoro-4-trifluoromethyl-benzyl)-4-(4-methanesulfonyl-[1,4]diazepan-1-yl)-2,N-dimethyl-butyramide], for which the Ki amounted to 16.2 nM.

For the molecule `CC(CCN1CCCN(S(C)(=O)=O)CC1)(C(=O)NCc1cccc(OC(F)(F)F)c1)c1ccc(Cl)c(Cl)c1` (stereo not drawn) [Example 102, 2-(3,4-Dichloro-phenyl)-4-(4-methanesulfonyl-[1,4]diazepan-1-yl)-2-methyl-N-(3-trifluoromethoxy-benzyl)-butyramide], the Ki was determined as 123 nM.

For the molecule `C[C@@H]1CN(CCC(C)(C(=O)N(C)Cc2ccc(F)c(C(F)(F)F)c2)c2ccc(Cl)c(Cl)c2)CCN1S(C)(=O)=O` (stereo partly drawn) [Example 33, 2-(3,4-Dichloro-phenyl)-N-(4-fluoro-3-trifluoromethyl-benzyl)-4-((R)-4-methanesulfonyl-3-methyl-piperazin-1-yl)-2,N-dimethyl-butyramide], the Ki was 15.8 nM.

Turning to `CN(Cc1ccc(C(F)(F)F)cc1)C(=O)C(C)(CCN1CCN(S(C)(=O)=O)CC1)c1ccc(Cl)c(Cl)c1` (stereo not drawn) [Example 28, 2-(3,4-Dichloro-phenyl)-4-(4-methanesulfonyl-piperazin-1-yl)-2,N-dimethyl-N-(4-trifluoromethyl-benzyl)-butyramide], the Ki amounted to 45 nM.

Regarding `CC(CCN1CCN(S(C)(=O)=O)CC1)(C(=O)N[C@@H](CO)c1ccccc1)c1ccc(Cl)c(Cl)c1` (single isomer, unassigned) [Example 128, (R or S)-2-(3,4-Dichloro-phenyl)-N-((R)-2-hydroxy-1-phenyl-ethyl)-4-(4-methanesulfonyl-piperazin-1-yl)-2-methyl-butyramide], the inhibition constant Ki came to 40.6 nM.

(Values after US7592345B2, “Piperazine and [1,4]diazepan derivatives as NK antagonists” (Hoffmann-La Roche Inc., priority 2007, dated 2009).)
